Source: ChEMBL document CHEMBL1165981, “Identification of novel quinazolin-4(3H)-ones as inhibitors of thermolysin, the prototype of the M4 family of proteinases” (Bioorg Med Chem, 2010)

Experiments:
Thermolysin [1] = target: T1, Thermolysin (Bacillus thermoproteolyticus, UniProt P00800); assay: Inhibition of Bacillus thermoproteolyticus thermolysin after 15 mins by microplate spectrophotometric analysis in presence of 1.0 mM substrate FaGLa
T1 sequence (P00800 whole entry): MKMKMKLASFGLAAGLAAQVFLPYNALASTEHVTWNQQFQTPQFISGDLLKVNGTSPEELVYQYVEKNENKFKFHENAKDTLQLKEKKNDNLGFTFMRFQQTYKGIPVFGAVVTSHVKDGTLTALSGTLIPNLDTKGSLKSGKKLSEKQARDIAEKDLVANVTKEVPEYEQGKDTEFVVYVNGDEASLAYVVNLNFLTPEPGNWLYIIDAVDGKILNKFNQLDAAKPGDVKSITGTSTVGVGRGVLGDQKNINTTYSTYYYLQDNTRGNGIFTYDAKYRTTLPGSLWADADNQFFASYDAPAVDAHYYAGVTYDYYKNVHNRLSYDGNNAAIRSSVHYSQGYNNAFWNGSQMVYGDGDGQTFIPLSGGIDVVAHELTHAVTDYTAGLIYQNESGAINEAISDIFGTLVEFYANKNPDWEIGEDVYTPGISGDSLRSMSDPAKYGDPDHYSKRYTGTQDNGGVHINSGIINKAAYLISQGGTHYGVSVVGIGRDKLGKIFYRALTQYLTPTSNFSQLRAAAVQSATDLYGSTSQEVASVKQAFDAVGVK

Thermolysin [2] = target: T1, Thermolysin; assay: Inhibition of Bacillus thermoproteolyticus thermolysin after 15 mins by microplate spectrophotometric analysis in presence of 0.5 to 2 mM substrate FaGLa

Compound	IC50 (Thermolysin [1])	Ki (Thermolysin [2]) [µM]	IC50 (Thermolysin [1]; read-out: IC50) [µM]
O=c1[nH]c(-c2ccc([N+](=O)[O-])cc2)nc2ccccc12	Not Active	–	–
O=c1c2ccccc2ncn1CCO	Not Active	–	–
CC(C)=NN1C(=O)c2ccccc2NC1(C)C	–	0.243	0.248
Cc1ccc(-c2nc3ccccc3c(=O)n2CCCN)cc1	Not Active	–	–
Nn1c(C(F)(F)F)nc2ccccc2c1=O	–	37.9	37.9
Nn1c(-c2ccc([N+](=O)[O-])cc2)nc2ccccc2c1=O	–	3120	3120
Cc1cc(C)c(-n2c(-c3ccccc3)nc3ccccc3c2=O)c(C)c1	Not Active	–	–
CCOC(=O)Cc1nc2ccccc2c(=O)[nH]1	Not Active	–	–
Nn1c(-c2ccccc2)nc2ccccc2c1=O	Not Active	–	–
O=c1[nH]c(-c2ccc(Cl)cc2)nc2ccccc12	–	1.25	1.25
CC(=O)Nn1c(-c2ccccc2)nc2ccccc2c1=O	Not Active	–	–
Nn1c(-c2ccc(Cl)cc2)nc2ccccc2c1=O	–	10100	12700
C/C(=N\n1c(-c2ccccc2)nc2ccccc2c1=O)Nc1cccc2ccccc12	Not Active	–	–
Cc1nc2ccccc2c(=O)n1CCO	Not Active	–	–
O=c1c2ccccc2nc2n1NC(c1ccccc1)N(/N=C/c1ccccc1)C2 (stereo unspecified)	Not Active	–	–
Cc1nc2ccccc2c(=O)n1N	–	54.9	54.9

Compound	IC50 (Thermolysin [1])	Ki (Thermolysin [2]) [µM]	IC50 (Thermolysin [1]; read-out: IC50) [µM]
COC(=O)c1ccccc1NC(=O)C(F)(F)F	Not Active	–	–
O=C(Nc1ccccc1C(=O)NCCCn1c(-c2ccccc2)nc2ccccc2c1=O)c1ccccc1	Not Active	–	–
O=c1c2ccccc2nc(C(F)(F)F)n1-c1ccccc1	–	0.0115	0.0115
Cc1nc2ccccc2c(=O)n1NC(=O)CCl	Not Active	–	–
Cc1nc2ccccc2c(=O)n1NC(=O)c1ccccc1	Not Active	–	–
O=c1c2ccccc2nc(-c2ccccc2)n1-c1ccc(I)cc1	Not Active	–	–
O=C1c2ccccc2NC(c2ccccc2)N1/N=C/c1ccccc1 (stereo unspecified)	Not Active	–	–
Cc1nc2ccccc2c(=O)n1N=C(N)N	Not Active	–	–
O=c1c2ccccc2nc(-c2ccccc2)n1-c1nccs1	Not Active	–	–
Cc1ccc(-c2nc3ccccc3c(=O)n2-c2nccs2)cc1	–	59.3	76.8
Cc1ccc(C(=O)Nn2c(C)nc3ccccc3c2=O)cc1	Not Active	–	–
Cc1ccc(-c2nc3ccccc3c(=O)n2CCN)cc1	Not Active	–	–
NNc1nc2ccccc2c(=O)n1N	Not Active	–	–
CC(=O)Nn1c(C)nc2ccccc2c1=O	Not Active	–	–
CCc1nc2ccccc2c(=O)[nH]1	Not Active	–	–
CO/C(C)=N/n1c(-c2ccccc2)nc2ccccc2c1=O	–	106000	123000
